Measured values: US20240210394A1, “MICROORGANISM CAPTURE FROM ANTIMICROBIAL-CONTAINING SOLUTION” (MOMENTUM BIOSCIENCE LIMITED, priority 2019, published 2024)

Tests used:
[1] = system: E. coli; assay: TVC viability of E. coli in whole blood with SPS over time; assay type: cell-based
Method: 2×5 mL whole blood or BacTec PLUS aerobic blood broth (1:3 ratio) aliquoted for each sample-set (E. coli and NSC sample). Then SPS added as follows:
Then 5 μL of E. coli 1E-2 preculture added to each 5-mL specimen tube to recreate standard 1E-5 dilution sample
• 1.88 μL neat o/n in Nutrient Broth (NB) added to 3 mL NB; and incubated for 2 hours at 37° C., 500 rpm • After 2 hours, E. coli preculture diluted 10-fold in warm NB; and then 5 μL added to each 5 mL specimen tube (prepared as shown in test conditions) • Magnitor Test initiated immediately, and TVCs performed as detailed below.
• 100 μL on COL plates at Time Zero • Sample bijous, containing approximately 2 mL sample, left at room temperature (20.4° C.) on bench (static) • TVCs performed at time points shown in table: samples mixed thoroughly before plating

[2] = system: S. aureus; assay: Total viable count (TVC) plate counts of spiked samples (T0/T2); assay type: cell-based; details: for TVC T2: 100 μL plated after 2 h at 37° C.; for TVC T0: 100 μL plated at time 0
Method: Test dilution(s) of organism was added to blood+antibiotic or blood only at 10 μL per mL of blood (sufficient prepared for experiment requirements). 100 μL plate count sample was taken (TO sample).
The inoculated samples were incubated at 37° C. (static) for 2-hour. 100 μL plate count sample was taken (T2 sample).
For the ‘rescue’ test, 5 mL of spiked blood+abx or blood only was treated with Momentum Capture Beads (Streptavidin-coated, −300 nm beads, Bio estapor, Merk Cat #BE-M 08/0.3) as below: • Momentum Capture Beads diluted in Detergent-free Microbial Binding Buffer (DMBB—Tris+NaCl)—50 μL beads:700 μL DMBB per clean-up • 750 μL of diluted beads added to 50 mL conical centrifuge tube • 5 mL of broth medium added to tube • 5 mL of spiked blood+abx or blood only added to tube • Incubate on ITL TherMix (Integrated Technologies Ltd. Kent, UK), 32.5° C./30 min/1000 rpm—ramped speed protocol • Magnetise on V&P magnet (V&P scientific Inc, CA, US) for 5 min then remove supernatant • Resuspend beads in 1 mL Detergent-free Wash Buffer (DWB—Tris+NaCl) off magnet and transfer to 2 mL Eppendorf flip-top tube on DynaMag-2 magnet (Thermo Fisher Scientific, Life Technologies Ltd. Paisley, UK) • Magnetise for 5 min then remove supernatant • Resuspend beads in 1 mL DWB off magnet then replace on DynaMag-2 magnet • Magnetise for 5 min then remove supernatant • Resuspend beads in 1 mL DWB, add to a fresh, unused blood culture bottle (BioMerieux SA culture bottle) containing standard blood culture growth medium using a vial adapter, and start incubation (adapter removed). • Blood culture bottles are incubated in the automated blood culture cabinet (BacT/ALERT BioMerieux) which records time to positivity. The “Flip” time is when a bottle turns positive as determined by the automated blood culture cabinet. • “Flip” time of each bottle is recorded. • Plate counts (Total Viable Count TVC) are recorded.
Day 2: Prepare ten-fold serial dilution of overnight culture in blood/broth as required • Antibiotic added to whole blood (defibrinated horse blood) at required level • Whole blood as no-antibiotic control • Test dilution(s) of organism added to blood+antibiotic or blood only at 10 μL per mL of blood (sufficient prepared for experiment requirements) • 100 μL plate count sample taken (TO sample) • 2-hour incubation at 37° C. (static), to mimic organism exposure to antimicrobials in the patient • 100 μL plate count sample taken (T2 sample) • 5 mL of spiked blood+abx or blood only added to blood culture bottle (using vial adapter) and incubation started (adapter removed) • 5 mL of spiked blood+abx or blood only (from same source) treated with Momentum Capture Beads as below: • 1. […]
Day 3: Plate counts recorded. […]

[3] = S. aureus spike dil 10-3 in blood + Piperacillin 96 ug/ml
[4] = S. aureus spike dil 10-4 in blood + Piperacillin 96 ug/ml

## Sodium polyanethol sulfonate [SPS]
[1]; WB SPS 0.01 %
  FOLD INCR. 0-2 hr: 3.39
[1]; WB SPS 0.01 %, EC Time 2 hrs
  TVC colonies: 498 colonies
[1]; WB SPS 0.01 %, EC Time 4 hrs
  TVC colonies: TNTC
[1]; WB SPS 0.01 %, EC Time 6 hrs
  TVC colonies: TNTC
[1]; WB SPS 0.01 %, EC Time 21 hrs
  TVC colonies: LAWN
[1]; WB SPS 0.01 %, EC Time ZERO
  TVC colonies: 147 colonies
[1]; WB SPS 0.02 %
  FOLD INCR. 0-2 hr: 4.67
[1]; WB SPS 0.02 %, EC Time 2 hrs
  TVC colonies: 448 colonies
[1]; WB SPS 0.02 %, EC Time 4 hrs
  TVC colonies: TNTC
[1]; WB SPS 0.02 %, EC Time 6 hrs
  TVC colonies: TNTC
[1]; WB SPS 0.02 %, EC Time 21 hrs
  TVC colonies: LAWN
[1]; WB SPS 0.02 %, EC Time ZERO
  TVC colonies: 96 colonies
[1]; WB SPS 0.04 %
  FOLD INCR. 0-2 hr: 3.12
[1]; WB SPS 0.04 %, EC Time 2 hrs
  TVC colonies: 1106 colonies
[1]; WB SPS 0.04 %, EC Time 4 hrs
  TVC colonies: TNTC
[1]; WB SPS 0.04 %, EC Time 6 hrs
  TVC colonies: TNTC
[1]; WB SPS 0.04 %, EC Time 21 hrs
  TVC colonies: LAWN
[1]; WB SPS 0.04 %, EC Time ZERO
  TVC colonies: 354 colonies
[1]; WB SPS 0.06 %
  FOLD INCR. 0-2 hr: 5.94
[1]; WB SPS 0.06 %, EC Time 2 hrs
  TVC colonies: 760 colonies
[1]; WB SPS 0.06 %, EC Time 4 hrs
  TVC colonies: TNTC
[1]; WB SPS 0.06 %, EC Time 6 hrs
  TVC colonies: TNTC
[1]; WB SPS 0.06 %, EC Time 21 hrs
  TVC colonies: LAWN
[1]; WB SPS 0.06 %, EC Time ZERO
  TVC colonies: 128 colonies
[1]; WB SPS 0.08 %
  FOLD INCR. 0-2 hr: 1.52
[1]; WB SPS 0.08 %, EC Time 2 hrs
  TVC colonies: 491 colonies
[1]; WB SPS 0.08 %, EC Time 4 hrs
  TVC colonies: TNTC
[1]; WB SPS 0.08 %, EC Time 6 hrs
  TVC colonies: TNTC
[1]; WB SPS 0.08 %, EC Time 21 hrs
  TVC colonies: LAWN
[1]; WB SPS 0.08 %, EC Time ZERO
  TVC colonies: 322 colonies
[1]; WB SPS 0.1 %
  FOLD INCR. 0-2 hr: 2.71
[1]; WB SPS 0.1 %, EC Time 2 hrs
  TVC colonies: 341 colonies
[1]; WB SPS 0.1 %, EC Time 4 hrs
  TVC colonies: TNTC
[1]; WB SPS 0.1 %, EC Time 6 hrs
  TVC colonies: TNTC
[1]; WB SPS 0.1 %, EC Time 21 hrs
  TVC colonies: LAWN
[1]; WB SPS 0.1 %, EC Time ZERO
  TVC colonies: 126 colonies

## CCN1CCN(C(=O)N[C@@H](C(=O)N[C@@H]2C(=O)N3[C@@H]2SC(C)(C)[C@@H]3C(=O)O)c2ccccc2)C(=O)C1=O [Piperacillin]
[2]; [3]
  TVC T2: 2
  TVC T0: 98
[2]; [4]
  TVC T2: 0
  TVC T0: 15
